Usually IC50 stands for the concentration that gives 50% inhibition.

The test system of one data set is HL-60 (TdT negative). The experiment in a line: ATP (ViaLight plus) cytotoxicity assay. Format: cell-based, Human. The conditions noted are these: for (FD) fold difference compared to Cordycepin = Cordycepin IC50/ProTide IC50: HL-60; for IC50: Homo sapiens. The procedure:
(§1) Certain compounds of the invention were subjected to further studies to test the cytotoxic activity of certain compounds of the invention and also to measure their activity against 4 haematological cancer cell lines • TdT positive CEM (Human ALL) • TdT negative K562 (Human CML) • TdT negative H1-60 (Human ANLL) • RL (CRL-2261) non-HD lymphoma • The concentrations of the active metabolite dATP (Cordycepin triphosphate) in these cell lines was also measured. • The cytotoxic activity and the intracellular 3′-dATP concentrations were also studied in the presence of hENT1, Adenosine Kinase (AK) and Adenosine Deaminase pharmacological inhibitors in CEM and RL cancer cell lines. Said inhibitors that mimic known cancer resistance mechanisms. Methods Cell Culture
(§2) HL-60 (ATCC® CCL-240™), K562 (ATCC® CCL-243™), CCRF-CEM (ATCC® CRM-CCL-119™) and RL (ATCC® CRL-2261™) leukaemia cell lines, obtained from the American Type Culture Collection (ATCC), Middlesex. HL-60 and K562 cell lines are deoxynucleotidyl transferase-negative (TdT-ve), whereas CCRF-CEM cell line is TdT+ve.
(§3) HL-60, K562, CCRF-CEM and RL cell lines were cultured in RPMI-1640 medium (Sigma Aldrich, UK), which were supplemented with 10% Fetal Bovine Serum (FBS) (PAA Laboratories), 1% amphotericin B (5.5 ml) and 1% penicillin/streptomycin (5.5 ml) (PAA Laboratories) and grown in flasks at 37° C. incubator with 5% CO2.
(§4) The amount of ATP was used as a measurement of cell number and cell viability. ATP ViaLight™ plus assay kit (Lonza, USA: Product No. LT07-121) to detect ATP in cells treated in luminescence compatible 96 well plates (initial concentration of cells was 1×10^4 cells/well) with cordycepin and ProTides at concentrations of: 0, 0.1, 0.5, 1, 5 and 10 μM, followed by incubation for 72 hours at 37° C. incubator with 5% CO2. For inhibitor studies, 10 μM of NBTI or 1 μM EHNA or A-134974 was added and left for 5 minutes before adding the drugs (see section 5 for inhibitor details).
(§5) After incubation, 50 μl of cell lysis reagent was added to the 96 well plates to release the intracellular ATP, followed by 100 μl of ATP monitoring reagent (AMR). The luminescent values of each well were determined using FLUOstar OPTIMA microplate reader (BMG Labtech) which convert ATP into light by using luciferase enzyme. Therefore, the amount of luminescence produced was directly proportional to the amount of ATP.
(§6) The dose-response curves of cytotoxicity of the drugs was determined using non-linear regression analysis of percentage cell viability versus concentration and EC50 values were obtained. The intracellular assay was conducted in five replicates for each condition. Intracellular assay was determined using paired t test (two-tailed) analysis of 3′ATP/ATP concentration and p-values were obtained. For all the analysis, Prism Software program (GraphPad Software) was used and Microsoft Powerpoint® 2013 was used to plot the results.

A further data set deals with K562 (TdT negative). The experiment in a line: ATP (ViaLight plus) cytotoxicity assay. It counts as cell-based, Human. The conditions noted are these: for IC50: Homo sapiens; for (FD) fold difference compared to Cordycepin = Cordycepin IC50/ProTide IC50: K562. Here is the method: as §1, §2, §3, §4, §5, §6
Data set [1] concerns CCRF-CEM (TdT positive CEM). The experiment in a line: ATP (ViaLight plus) cytotoxicity assay. It counts as cell-based, Human. The conditions noted are these: for IC50: Homo sapiens, CCRF-CEM. The procedure: as §1, §2, §3, §4, §5
Cell lines were treated in the same way as described above but before treatment with drugs, a number of inhibitors were added: • 1) Nitrobenzylthioinosine (NBTI) (Sigma-Aldrich, St. Louis, Mo., product # N2255) blocks nucleoside transporters • 2) EHNA hydrochloride (Sigma-Aldrich, St. Louis, Mo., product # E114) blocks adenosine deaminase • 3) Adenosine kinase inhibitor A-134974 dihydrochloride hydrate (Sigma-Aldrich, St. Louis, Mo., product # A2846): blocks adenosine kinase
as §6

A further data set concerns KG1a cells. The experiment in a line: Annexin V/propidium iodide in vitro apoptosis assay (LD50). It counts as cell-based. The note with it: 72 h.
Data set [2] relates to leukaemic stem cell (LSC) compartment within the KG1a cell line. Kind of data set: Immunophenotypic identification of the leukaemic stem cell compartment. Format: cell-based. The note with it: 72 h. Here is the method: KG1a cells were cultured for 72 h in the presence of a wide range of concentrations of each compound assayed. Cells were then harvested and labelled with a cocktail of anti-lineage antibodies (PE-cy7), anti-CD34 (FITC), anti-CD38 (PE) and anti-CD123 (PERCP cy5). The sub-population expressing a LSC phenotype were subsequently identified and were expressed as a percentage of all viable cells left in the culture. The percentages of stem cells remaining were then plotted on a dose-response graph and the effects of the compounds were compared with each other, and with the parent nucleoside.
The data obtained in these experiments were evaluated using one way ANOVA. All data was confirmed as Gaussian or a Gaussian approximation using the omnibus K2 test. LD50 values were calculated from the non-linear regression and line of best-fit analysis of the sigmoidal dose-response curves. All statistical analyses were performed using Graphpad Prism 6.0 software (Graphpad Software Inc., San Diego, Calif.).

[3] abbreviates: CEM, with AK (adenosine kinase inhibitor A-134974, 1 μM).
The mark [4] stands for this setting: CEM, with EHNA 1 μM (adenosine deaminase blocker).
Where [5] appears, read: CEM, with NBTI 10 μM (nucleoside transporter blocker).

Molecules are shown by their SMILES. Like-named read-outs stand apart in the source and are kept apart here.

Protocol for KG1a cells: The KG1a cell line was maintained in RPMI medium (Invitrogen, Paisley, UK) supplemented with 100 units/ml penicillin, 100 μg/ml streptomycin and 20% foetal calf serum. Cells were subsequently aliquoted (10^5 cells/100 μl) into 96-well plates and were incubated at 37° C. in a humidified 5% carbon dioxide atmosphere for 72 h in the presence of nucleoside analogues and their respective proTides at concentrations that were experimentally determined for each series of compounds. In addition, control cultures were carried out to which no drug was added. Cells were subsequently harvested by centrifugation and were analyzed by flow cytometry using the Annexin V assay.
Cultured cells were harvested by centrifugation and then resuspended in 195 μl of calcium-rich buffer. Subsequently, 5 μl of Annexin V (Caltag Medsystems, Botolph Claydon, UK) was added to the cell suspension and cells were incubated in the dark for 10 mins prior to washing. Cells were finally resuspended in 190 μl of calcium-rich buffer together with 10 μl of propidium iodide. Apoptosis was assessed by dual-colour immunofluorescent flow cytometry as described previously.
The data obtained in these experiments were evaluated using one way ANOVA. […] LD50 values were calculated from the non-linear regression and line of best-fit analysis of the sigmoidal dose-response curves. […]

Consider `C[C@H](NP(=O)(OC[C@@H]1C[C@@H](O)[C@H](n2cnc3c(N)ncnc32)O1)Oc1cccc2ccccc12)C(=O)OCc1ccccc1` (stereo partly drawn) [B, (2S)-benzyl 2-(((((2S,4R,5R)-5-(6-amino-9H-purin-9-yl)-4-hydroxytetrahydrofuran-2-yl)methoxy)(naphthalen-1-yloxy)phosphoryl)amino)propanoate], for which the “(FD) fold difference compared to Cordycepin = Cordycepin IC50/ProTide IC50” value in the data set on HL-60 (TdT negative) is “(4)”. In addition, the IC50 with HL-60 (TdT negative) (HL-60, 72 h) turned out to be 2.6 µM; in the data set on K562 (TdT negative) (K562, 72 h) it was 0.21 µM; in data set [1] (72 h, CEM (TdT+ve), 72 hours) it was 0.13 µM; in data set [1] (CEM, Control (no inhibitor)), 0.9 µM; in data set [1] (setting [3]) it was 1.3 µM; in data set [1] (setting [4]), 1.3 µM. Besides, the IC50 in data set [1] (setting [5]) was 1.4 µM. Further, the “(FD) fold difference compared to control” value in data set [1] (CEM, IC50 with AK inhibitor) is given as “(1)”; in data set [1] (CEM, IC50 with EHNA), “(1)”; in data set [1] (CEM, IC50 with NBTI) it was “(1)”.

Take `Nc1ncnc2c1ncn2[C@@H]1O[C@H](CO)C[C@H]1O` [Cordycepin, 3′-deoxyadenosine, reference compound]: the IC50 in the data set with HL-60 (TdT negative) (HL-60, 72 hours, read-out: IC50) came to 11.4 µM; with K562 (TdT negative) (K562, 72 hours, read-out: IC50), 10.9 µM; in data set [1] (72 h, CEM (TdT+ve), 72 hours, read-out: IC50), 19.5 µM; in data set [1] (CEM, Control (no inhibitor), read-out: IC50), 11.5 µM; in data set [1] (CEM, with AK (adenosine kinase inhibitor A-134974, 1 μM), read-out: IC50), 29.2 µM; in data set [1] (CEM, with EHNA 1 μM (adenosine deaminase blocker), read-out: IC50), 0.7 µM. In addition, the IC50 in data set [1] (CEM, with NBTI 10 μM (nucleoside transporter blocker), read-out: IC50) was 57.7 µM. In addition, the “(FD) fold difference compared to control” value in data set [1] (CEM, IC50 with AK inhibitor) is listed as “(3)”; in data set [1] (CEM, IC50 with NBTI), “(5)”.

Consider `COC(=O)C(C)(C)NP(=O)(OC[C@@H]1C[C@@H](O)[C@H](n2cnc3c(N)ncnc32)O1)Oc1cccc2ccccc12` (stereo partly drawn) [E, Methyl 2-(((((2S,4R,5R)-5-(6-amino-9H-purin-9-yl)-4-hydroxytetrahydrofuran-2-yl)-methoxy)(naphthalen-1-yloxy)phosphoryl)amino)-2-methylpropanoate], for which the “(FD) fold difference compared to Cordycepin = Cordycepin IC50/ProTide IC50” value in the data set on HL-60 (TdT negative) is “(1)”; with K562 (TdT negative) it was “(1)”; in data set [1] (CEM (TdT+ve)) it was “(2)”. Further, the IC50 worked out at 10.2 µM in the data set with HL-60 (TdT negative) (HL-60, 72 h); 13.9 µM with K562 (TdT negative) (K562, 72 h); 10 µM in data set [1] (72 h, CEM (TdT+ve), 72 hours); 9.9 µM in data set [1] (CEM, Control (no inhibitor)); 10.3 µM in data set [1] (setting [3]); 13.4 µM in data set [1] (setting [4]). Moreover, the IC50 in data set [1] (setting [5]) stood at 17.1 µM. Further, the “(FD) fold difference compared to control” value in data set [1] (CEM, IC50 with AK inhibitor) was “(1)”; in data set [1] (CEM, IC50 with EHNA) it was “(1)”; in data set [1] (CEM, IC50 with NBTI), “(2)”.

As to `CCOC(=O)CCc1ccccc1OP(=O)(N[C@@H](C)C(=O)OCc1ccccc1)OC[C@@H]1C[C@@H](O)[C@H](n2cnc3c(N)ncnc32)O1` (stereo partly drawn) [F, (2S)-benzyl 2-(((((2S,4R,5R)-5-(6-amino-9H-purin-9-yl)-4-hydroxytetrahydrofuran-2-yl)methoxy)(2-(3-ethoxy-3-oxopropyl)phenoxy)phosphoryl)amino)propanoate], the “(FD) fold difference compared to Cordycepin = Cordycepin IC50/ProTide IC50” value with HL-60 (TdT negative) is recorded as “(1)”; with K562 (TdT negative) it was “(2)”; in data set [1] (CEM (TdT+ve)), “(5)”. Also, the IC50 was 8.3 µM in the data set on HL-60 (TdT negative) (HL-60, 72 h); 6.3 µM in the data set on K562 (TdT negative) (K562, 72 h); 4.3 µM in data set [1] (72 h, CEM (TdT+ve), 72 hours).

In the case of `C[C@H](NP(=O)(OC[C@@H]1CC(O)[C@H](n2cnc3c(N)ncnc32)O1)Oc1ccccc1)C(=O)OCc1ccccc1` (stereo partly drawn) [Compound A, 3′-deoxyadenosine-5′-O-[phenyl(benzyloxy-L-alaninyl)] phosphate], the “in vitro drug sensitivity / potency (LD50 comparison, FIG. 1)” value in the data set on KG1a cells is listed as “increased in vitro potency when compared to Cordycepin”. The “(FD) fold difference compared to Cordycepin = Cordycepin IC50/ProTide IC50” value in the data set on HL-60 (TdT negative) is “(3)”; in the data set with K562 (TdT negative) it was “(5)”; in data set [1] (CEM (TdT+ve)), “(22)”. The 50% inhibitory concentration (IC50) in the data set on HL-60 (TdT negative) (HL-60, 72 h) turned out to be 4.6 µM; in the data set on K562 (TdT negative) (K562, 72 h), 2.4 µM; in data set [1] (72 h, CEM (TdT+ve), 72 hours), 0.87 µM; in data set [1] (CEM, Control (no inhibitor)) it was 1.4 µM; in data set [1] (setting [3]) it was 3.6 µM; in data set [1] (setting [4]), 3.1 µM. In data set [1] (setting [5]), the IC50 was 2 µM. The “reduction of LSCs as a proportion of the cancer cells in culture (ability to target LSCs)” value in data set [2] (Lin−/CD34+/CD38−/CD123+) is recorded as “preferentially target cancer stem cells”. Moreover, the “LSC targeting compared with the parent nucleoside” value in data set [2] (for compound A at 1 mM and above) was “significantly greater than that of the parent compound”. Further, the “(FD) fold difference compared to control” value in data set [1] (CEM, IC50 with AK inhibitor) is given as “(3)”; in data set [1] (CEM, IC50 with EHNA) it was “(2.2)”; in data set [1] (CEM, IC50 with NBTI), “(1)”.

The values are drawn from patent publication US10570168B2, “2′ and/or 5′ amino-acid ester phosphoramidate 3′-deoxy adenosine derivatives as anti- cancer compounds” (NuCana plc, priority 2014, dated 2020).
